System: NON-GMO Impala F1 Cabbage (Brassica oleracea L. var. capitata) callus cultures
Assay: Elicitation of callus cultures, benzyl isothiocyanate accumulation and callus weight
Assay type: cell-based
Details: for Concentration of benzyl isothiocyanate / Dry weight / Fresh weight: four weeks of culture
Procedure: 10 g of calli (fresh weight/vessel) was transferred to the same medium composition in addition to different concentrations of chitosan (200, 400 and 600 mg/L) and salicylic acid (10, 20 and 40 mg/L) as biotic elicitors, in addition to the control treatment without elicitors. After calli was collected, the fresh and dry weights were determined. Dry weight was determined after drying the calli at 45° C. in an oven until a constant weight was obtained. Benzyl Isothiocyanate concentration was also recorded with each treatment. After four weeks of culture, data was documented.
To determine Benzyl Isothiocyanate content, high performance liquid chromatography (HPLC) was performed. The extraction of Benzyl Isothiocyanate was carried out from calli and cells from Erlenmeyer flask culture and single-use ReadyToProcess WAVE Cellbag bioreactor experiments. Samples were homogenized using a glass mortar and pestle (MilliporeSigma, Belgium) containing 70:30 (v:v) MeOH:sterilized water. Extracts were then transferred to glass stoppered Erlenmeyer flasks (DWK Life Sciences) and conditioned in a thermostatic bath (Fisherscientific, Belgium) under constant agitation. For 30 minutes the extraction was carried out at 70° C. and then filtered on Invitrolon PVDF membranes (Polyvinylidene Fluoride) ([…], ThermoFisher Scientific, Belgium) prior to HPLC injection.
Methanolic extracts of the samples were analyzed by HPLC for Benzyl Isothiocyanate concentration using an external standard. HPLC system (Ultimate 3000 Automated System, ThermoFisher Scientific, Belgium) was coupled with UV-Vis detector (UltiMate 3000 Multiple Wavelength Detector, ThermoFisher Scientific, Belgium) and vacuum degasser (UltiMate 3000 SRD-3400 HPLC Degasser, ThermoFisher Scientific, Belgium).
Sample injections of 20 μl were made by an autosampler (UltiMate 3000 WPS-3000 Autosampler, ThermoFisher Scientific, Belgium); the chromatographic separations were performed on C18 Reversed Phase LC columns (Accucore C18 LC Columns, ThermoFisher Scientific, Belgium). Column temperature was maintained at 30° C. and detection wavelength was 253 nm. Optimum efficiency of separation was obtained using methanol (solvent A), and acetonitrile (solvent B) (HPLC grade, Sigma Aldrich, Belgium). The flow rate was 1 ml/minute. The running time for each analysis was 60 minutes, and 10 minutes were required for column cleaning and equilibrium.
The Benzyl Isothiocyanate concentration of the injected samples was calculated as μg/g fresh weight of sample.
Experiments were conducted in a completely randomized design with at least 30 replicates per treatment for the calli experiment and 4 replicates for the cell suspension culture experiments. Data were subjected to statistical analysis by Analysis of Variance (Anova) programme using Duncan's multiple range test as modified by Snedecor and Cochran. Values marked with different letters were considered to be statistically different at p<0.04.

O=C(O)c1ccccc1O [Salicylic acid]
increase in Benzyl Isothiocyanate accumulation over the control treatment (salicylic acid 10 mg/L): 1.7 times | Concentration of benzyl isothiocyanate (salicylic acid 10 mg/L): 2.174 μg/g fresh weight | Dry weight (salicylic acid 10 mg/L): 4.807 g | Fresh weight (salicylic acid 10 mg/L): 5.985 g | Concentration of benzyl isothiocyanate (salicylic acid 20 mg/L): 2.039 μg/g fresh weight | Dry weight (salicylic acid 20 mg/L): 4.424 g | Fresh weight (salicylic acid 20 mg/L): 4.981 g | Concentration of benzyl isothiocyanate (salicylic acid 40 mg/L): 1.956 μg/g fresh weight | Dry weight (salicylic acid 40 mg/L): 5.107 g | Fresh weight (salicylic acid 40 mg/L): 5.509 g

— patent publication US20220162548A1, “PRODUCING ISOTHIOCYANATES FROM CALLUS SUSPENSION CULTURES” (PERPETUUM CROPSCIENCE BVBA, priority 2019, published 2022)
